# Test results published in PMC10547168, “Cell cycle-dependent organization of a bacterial centromere through multi-layered regulation of the ParABS system” (PLOS Genetics, 2023).
# Biological target: T1, ParBBb (Bdellovibrio bacteriovorus, UniProt Q6MGM0)
# T1 construct: gene parB; C-terminal 6xHis tag kept (pET21), expressed in E. coli BL21(DE3); HisTrap and Superdex 75 purified; dimer
# T1 sequence (Q6MGM0 1-337): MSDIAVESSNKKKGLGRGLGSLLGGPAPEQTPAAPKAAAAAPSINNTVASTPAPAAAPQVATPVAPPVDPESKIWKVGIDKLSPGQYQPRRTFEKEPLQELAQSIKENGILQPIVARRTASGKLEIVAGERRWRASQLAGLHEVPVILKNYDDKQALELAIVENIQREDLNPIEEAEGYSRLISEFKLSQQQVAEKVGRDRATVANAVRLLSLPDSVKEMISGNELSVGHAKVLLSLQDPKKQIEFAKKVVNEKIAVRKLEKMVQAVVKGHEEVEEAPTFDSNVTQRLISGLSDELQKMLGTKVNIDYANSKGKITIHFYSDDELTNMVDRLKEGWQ
# Assay: EnzChek phosphate release assay (A360)
# Type: biochemical
# Conditions: 1 mM NTP, 1 uM ParBBb, 22 bp parSBb DNA duplex, Mg2+, Tris pH 8.0, 25 °C
smiles,measurement,value
Nc1ccn([C@@H]2O[C@H](COP(=O)(O)OP(=O)(O)OP(=O)(O)O)[C@@H](O)[C@H]2O)c(=O)n1 [CTP],EnzChek phosphate release assay (A360),ParBBb hydrolyses CTP but no other NTPs in the presence of parSBb
